According to patent US12103946B2, “Steroid compounds as Treg modulators and uses thereof” (New York University, priority 2018, dated 2024):
Like-named read-outs stand apart in the source and are kept apart here. One block for each compound: values may come before it.

What was measured:
[1] = system: naïve CD4+ T cells (Treg differentiation, FoxP3); assay: In vitro Treg differentiation, FoxP3 staining by flow cytometry; type: cell-based, mouse; settings: for FoxP3 expression / Treg differentiation in cells lacking CNS3: CNS3 knockout cells
Excerpt: To determine if bile acids influence T cell functions, the present inventors performed a small-scale screening assay with a small molecule library comprising secondary bile acids with in vitro Treg differentiation as a read-out. Naïve CD4^+ T lymphocytes were sorted from wild-type B6 mice and cultured in the presence of a TCR stimulus, interleukin 2 (IL-2), and different amounts of TGFβ (optimized for Treg differentiation). Treg differentiation was quantified at the single cell level by staining with an antibody specific for FoxP3, followed by flow cytometry analysis. Retinoic acid, a known enhancer of Treg differentiation, was used as a positive control.
(§1) Our screen included both primary bile acids, synthesized by the host, and secondary bile acids, produced by bacterial modification of primary bile acids (FIG. 5). Naïve CD4^+ T cells were isolated from wild-type C57BL/6J (B6) mice and cultured with bile acids under Th17 differentiation conditions and, as a counter-screen, Treg differentiation conditions (FIG. 6).
(§2) In Vitro T Cell Culture. Naïve CD4^+ (CD62L^+ CD44^− CD25^− CD4^+) T cells were isolated from the spleens and the lymph nodes of mice of designated genotypes with FACS sorting. For certain experiments, naïve CD4^+ T cells were enriched using naïve CD4^+ T cell isolation kits (Miltenyi). Naïve CD4^+ T cells (40,000 cells) were cultured in a 96-well plate pre-coated with hamster IgG (MP Biomedicals) in T cell medium (RPMI, 10% fetal bovine serum, 25 mM glutamine, 55 μM 2-mercaptoethanol, 100 U/mL penicillin, […] streptomycin) supplemented with 0.25 μg/mL anti-CD3 (clone 145-2C11) and 1 μg/mL anti-CD28 (clone 37.51). For Th0 culture, T cells were cultured with the addition of 100 U/mL of IL-2 (PEPROTECH). For Th1 cell differentiation, T cells were cultured with the addition of 100 U/mL of IL-2, 10 μg/mL of anti-IL-4 (clone 11B11) and 10 ng/mL of IL-12 (PEPROTECH). For Th2 cell differentiation, T cells were cultured with the addition of 10 μg/mL of anti-IFNγ (clone XMG1.2) and 10 ng/mL of IL-4 (R&D Systems). For Th17 cell differentiation, T cells were cultured with the addition of 10 ng/mL of IL-6 (eBioscience) and 0.5 ng/mL of TGF-β (PEPROTECH). For Treg culture, T cells were cultured with the addition of 100 U/mL of IL-2 and various concentrations of TGF-β. […] Bile acids, retinoic acid (Sigma) or mitoQ (Focus Biomolecules), or mitoPQ (Sigma) were added either at 0 or 16 h time points. Compounds with low water solubility were sonicated before adding to the culture. Cells were harvested and assayed by flow cytometry on day 3. For ROS and mitochondrial membrane potential detection, cells cultured for 2 days were incubated with 5 μM of mitoSOX (ThermoFisher), 10 μM of DCFDA (Sigma) or 2 μM of JC-1 (ThermoFisher) for 30 min and assayed with flow cytometry.
(§3) Flow Cytometry. Cells harvested from in vitro culture or in vivo mice experiments were stimulated with 50 ng/mL PMA (Phorbol 12-myristate 13-acetate, Sigma) and 1 μM ionomycin (Sigma) in the presence of GolgiPlug (BD) for 4 h to determine cytokine expression. After stimulation, cells were stained with cell surface marker antibodies and LIVE/DEAD Fixable dye, Aqua, to exclude dead cells, fixed and permeabilized with a FoxP3/Transcription factor staining kit (eBioscience), followed by staining with cytokine- and/or transcription factor-specific antibodies. All flow cytometry analyses were performed on an LSR II flow cytometer (BD) and data were analyzed with FlowJo software (TreeStar).

[2] = cited from earlier work
[3] = physchem; settings: pH 8
Description: (§5) Measurement of lipophilicity. Partitioning Method: 2 μL of 10 mM stock solutions of each target compound was added to a 1 mL each of 50 mM ammonium bicarbonate (pH=8), and 1 mL of n-octanol in an Eppendorf tube. The resulting two-phase mixture was vortexed and then shaken for 18 h at 20° C. The two phases were then carefully separated into the aqueous sample (bottom layer), and organic sample (top-layer) and placed separately in autosampler vials and analyzed by LC-MS/MS. LC-MS Method: a Thermo q-Exactive Plus LC-MS equipped with an Ultimate 3000 HPLC was operated in negative ion mode after optimized to detect the [M− H]^− of the bile acids. […] A Dikma Inspire C8 column (3 μm particle size, 100 mm length, 4.6 mm ID) was used for analysis. Each injection was 5 μL, and a constant flow rate of 0.400 L/min was used. The gradient started at 0% B and was held constant for 2 minutes. Then the mobile phase composition was linearly changed to 100% B over 8 minutes and held at 100% for the following 5 minutes. The mobile phase composition was changed to 0% B over the following 0.1 minutes and the system was allowed to equilibrate to starting conditions over 1.9 minutes. Standards of all targets were used to establish retention times. Better than 2 ppm mass accuracy was obtained on all measurements. The LC-MS analysis was done in triplicate, while the partitioning was done once for each target's [M− H]^− ion. Calculation of log D: the total response of target in octanol was divided by the total response in the aqueous phase to get a partitioning coefficient. Then, log base 10 was taken and reported.

[4] = system: CD4+ T cells; settings: for cell viability: 3-day culture
Excerpt: Representative FACS plots of CD4^+ T cells cultured for 3 days and stained intracellularly for FoxP3 (e). Quantification of FoxP3^+ and viable T cells after 3-day culture (f) (n=2/group). n, number of biologically independent samples. Data are representative of two independent experiments (b, d). Data in (c) are shown as the mean±standard deviation.
Naïve CD4^+ T cells were isolated from FoxP3-IRES-GFP mice. d, Flow cytometry of CD4^+ T cells stained intracellularly for FoxP3. Naïve CD4^+ T cells isolated from WT, CNS1, CNS2 or CNS3 knockout mice (n=3/group) were cultured with anti-CD3/28 and IL-2, LCA (20 μM), TGF-β (0.05 ng/ml) and additional retinoic acid (RA; 1 ng/ml). e and f, Flow cytometry (e) and its quantification (f) of CD4^+ T cells stained intracellularly for FoxP3. […] Data are representative of two independent experiments (c, d). Data are shown as the mean±standard deviation by unpaired t-test with 2-tailed p-value.
as §3

[5] = system: naïve CD4+ T cells (Th17 differentiation, IL-17a); assay: In vitro Th17 differentiation, IL-17a staining by flow cytometry; type: cell-based, mouse; settings: for Th17 cell differentiation (IL-17a): bile acids 20 μM, 3 days, IL-6 and TGF-β
Excerpt: as §1, §2, §3

[6] = system: fusion protein of RORγt and Gal4-DBD; assay: RORγt luciferase reporter assay in HEK293 cells; type: cell-based, human; settings: ML209 2 μM, bile acids 10 μM
Description: Data are shown as the mean±standard deviation by unpaired t-test with 2-tailed p-value.
(§4) We next examined if 3-oxoLCA physically interacts with the RORγt protein in vitro. A microscale thermophoresis (MST) assay was performed with recombinant human RORγt ligand-binding domain (LBD). […] Next, we examined if 3-oxoLCA modulates the transcriptional activity of RORγt. We assayed the effect of the bile acids on firefly luciferase expression directed by a fusion protein of RORγt and Gal4-DBD (DNA-binding domain) in human embryonic kidney (HEK) 293 cells^14.

[7] = target: T1, recombinant human RORγt ligand-binding domain (LBD) (Homo sapiens, UniProt P51449); assay: Microscale thermophoresis assay; settings: MST
T1 sequence (P51449 269-508 limits assumed): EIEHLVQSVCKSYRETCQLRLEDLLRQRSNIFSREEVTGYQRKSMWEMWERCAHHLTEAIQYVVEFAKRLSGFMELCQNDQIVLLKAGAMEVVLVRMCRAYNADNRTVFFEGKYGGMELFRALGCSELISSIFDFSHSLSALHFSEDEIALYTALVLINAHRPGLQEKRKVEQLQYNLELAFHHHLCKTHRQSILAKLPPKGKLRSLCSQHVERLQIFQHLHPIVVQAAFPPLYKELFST
Description: as §4
Microscale Thermophoresis Assay. The binding affinity of the compounds with RORγ ligand-binding domain (LBD) was analyzed by microscale thermophoresis (MST). Purified RORγ-LBD was labeled with the Monolith NT™ Protein Labeling Kit RED (NanoTemper Technologies). Serially-diluted compounds, with concentrations of 1 mM to 20 nM, were mixed with 55 nM labeled RORγ-LBD at room temperature and loaded into Monolith™ standard-treated capillaries. Binding was measured by monitoring the thermophoresis with 20% LED power and ‘Medium’ MST power on a Monolith NT.115 instrument (Nano Temper Technologies) with the following time setting: 5s Fluo, Before; 20s MST On; and 5s Fluo, After. Kd values were fitted using the NT Analysis software (Nano Temper Technologies).

[8] = Measurement of lipophilicity (octanol/ammonium bicarbonate partitioning, LC-MS); settings: n-octanol / 50 mM ammonium bicarbonate, pH 8
Description: as §5

[9] = system: T cells; assay: ROS, mitochondrial mass and membrane potential (mitoSOX, DCFDA, MitoTracker, JC-1); type: cell-based, mouse; settings: 48 h
Description: Chromatin obtained from DMSO- and isoalloLCA-treated WT cells was immunoprecipitated with IgG, anti-H3K27Ac, anti-P300, or anti-H3K4me1 antibodies, followed by real-time PCR analysis (n=3/group). Primers targeting FoxP3 promoter (Pro), CNS1, CNS2 and CNS3 region and hsp90 promoter were used for qPCR quantification. Relative enrichment was calculated as fold change relative to the ChIP signal at the FoxP3 promoter of the DMSO-treated control. d and e, Flow cytometry and quantification of CD4^+ T cells stained intracellularly for FoxP3. […] Their mitochondrial and cytoplasmic ROS were measured by mitoSOX (h) and 2′,7′-dichlorofluorescein diacetate (DCFDA) (i), respectively. Total mitochondria mass was measured by MitoTracker (j) and the mitochondrial membrane potential measured by JC-1 dye (k). MFIs of different treatments were normalized as fold changes to those of DMSO control (n=3/group).
In Vitro T Cell Culture. Naïve CD4^+ (CD62L^+ CD44^− CD25^− CD4^+) T cells were isolated from the spleens and the lymph nodes of mice of designated genotypes with FACS sorting. For certain experiments, naïve CD4^+ T cells were enriched using naïve CD4^+ T cell isolation kits (Miltenyi). […]

Compound: CCNC(=O)C[C@@H]1N=C(c2ccc(Cl)cc2)c2cc(OC)ccc2-n2c(C)nnc21 [iBET, reference compound]
- effect on isoalloLCA-dependent enhancement of FoxP3 ([1]; isoalloLCA 20 μM, TGF-β 0.05 ng/mL): prevented isoalloLCA-dependent enhancement of FoxP3 in a dose-dependent manner

Compound: C[C@H](CCC(=O)O)[C@H]1CC[C@H]2[C@@H]3[C@@H](O)C[C@@H]4C[C@H](O)CC[C@]4(C)[C@H]3CC[C@]12C [UDCA, Ursodeoxycholic acid]
- Log D (pH = 8.0), previously reported [2]: 2.2

- logD at 18 h [3]: 3.5
Compound: C[C@H](CCC(=O)O)[C@H]1CC[C@H]2[C@@H]3CC[C@@H]4C[C@@H](O)CC[C@]4(C)[C@H]3CC[C@]12C [isoLCA, Isolithocholic acid]

Compound: C[C@H](CCC(=O)O)[C@H]1CC[C@H]2[C@@H]3CC[C@H]4C[C@@H](O)CC[C@]4(C)[C@H]3CC[C@]12C [isoalloLCA, Isoallolithocholic acid]
- cell viability [4]: do not significantly affect cell proliferation, cell viability
- cell viability ([4]; listed as IsoalloLCA): did not impair cell viability
- logD at 18 h [3]: 2.2
- reduction of Th17 cell differentiation ([5]; 20 μM): ~50%

Compound: COc1cc(O)c(C(CC(=O)N2C[C@H](C)C[C@H](C)C2)c2ccc3c(c2)OCO3)c(OC)c1 (stereo partly shown) [ML209, reference compound]
- RORγt reporter activity [6]: completely lost RORγt activity

- Kd relative to 3-oxoLCA [7]: ~20 times
Compound: C[C@H](CCC(=O)O)[C@H]1CC[C@H]2[C@@H]3[C@H](O)C[C@@H]4CC(=O)CC[C@]4(C)[C@H]3C[C@H](O)[C@]12C [3-oxoCA, 3-oxocholic acid, reference compound]
- Th17 cell differentiation (IL-17a) [5]: Neither 3-oxoCA nor 3-oxoDCA inhibited Th17 cell differentiation as robustly as 3-oxoLCA

Compound: TGF-β: cytokine used for Treg culture
- FoxP3 expression / Treg differentiation in cells lacking CNS3 [1]: boosted Treg differentiation in CNS3-deficient cells, albeit with reduced efficiency

- logD at 18 h [8]: 2.7
Compound: C[C@H](CCC(=O)O)[C@H]1CC[C@H]2[C@@H]3CC[C@@H]4C[C@H](O)CC[C@]4(C)[C@H]3C[C@H](O)[C@]12C [DCA, Deoxycholic acid]

Compound: C[C@H](CCC(=O)NCC(=O)O)[C@H]1CC[C@H]2[C@@H]3CC[C@H]4C[C@@H](O)CC[C@]4(C)[C@H]3CC[C@]12C [Glyco-isoalloLCA]
- cytotoxicity compared to isoalloLCA ([4]; 10 or 20 μM): enhanced cytotoxicity at 10 or 20 μM compared to isoalloLCA

- logD at 18 h [3]: 3.6
Compound: C[C@H](CCC(=O)O)[C@H]1CC[C@H]2[C@@H]3CC[C@@H]4C[C@H](O)CC[C@]4(C)[C@H]3CC[C@]12C [LCA, Lithocholic acid]

Compound: C[n+]1ccc(-c2cc[n+](CCCCCCCCCC[P+](c3ccccc3)(c3ccccc3)c3ccccc3)cc2)cc1.[I-].[I-].[I-] [mitoPQ, mitoParaquat, reference compound]
- mitochondrial ROS (mitoROS) production [9]: sufficient to enhance mitoROS production
- FoxP3 expression / Treg differentiation in cells lacking CNS3 [1]: required the CNS3 enhancer and TGF-β
- Treg differentiation (FoxP3 expression) ([1]; bile acids 20 μM, 3 days, anti-CD3/28, IL-2): sufficient to enhance mitoROS production and Treg differentiation in a dose-dependent manner

- Kd relative to 3-oxoLCA [7]: ~20 times
Compound: C[C@H](CCC(=O)O)[C@H]1CC[C@H]2[C@@H]3CC[C@@H]4CC(=O)CC[C@]4(C)[C@H]3C[C@H](O)[C@]12C [3-oxoDCA, 3-oxodeoxycholic acid, reference compound]
- Th17 cell differentiation (IL-17a) [5]: Neither 3-oxoCA nor 3-oxoDCA inhibited Th17 cell differentiation as robustly as 3-oxoLCA

- logD at 18 h [8]: 2.5
Compound: CC[C@H]1[C@@H](O)[C@@H]2[C@H](CC[C@]3(C)[C@@H]([C@H](C)CCC(=O)O)CC[C@@H]23)[C@@]2(C)CC[C@@H](O)C[C@@H]12 [OCA, Obeticholic acid]

Compound: C[C@H](CCC(=O)O)[C@H]1CC[C@H]2[C@@H]3[C@H](O)C[C@@H]4C[C@H](O)CC[C@]4(C)[C@H]3CC[C@]12C [CDCA, Chenodeoxycholic acid]
- Log D (pH = 8.0), previously reported [2]: 2.2

- Log D (pH = 8.0): 3.5
Compound: C[C@H](CCC(=O)O)[C@H]1CC[C@H]2[C@@H]3CC[C@H]4C[C@H](O)CC[C@]4(C)[C@H]3CC[C@]12C [alloLCA, Allolithocholic acid]
